# Measurements published in patent US8952024B2, “Herbicidal pyrimidone derivatives” (E I du Pont de Nemours and Company, priority 2009, dated 2015).
# Assays:
# Assay in all cases: Test B pre-/postemergence plant response
# Type in all cases: in vivo
# [1] = tested on: lambsquarters (Chenopodium album)
# Outline: (§1)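 Compound in solvent + surfactant applied pre-em (loam/sand) or post-em (plants 2–18 cm, peat medium); greenhouse hold 13–15 days; visual 0–100 control score.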
# [2] = tested on: pigweed (Amaranthus retroflexus)
# Outline: as §1
# wild oat (Avena fatua) = tested on: wild oat (Avena fatua)
# Outline: as §1
# [3] = tested on: yellow nutsedge (Cyperus esculentus)
# Outline: as §1
# soybean (Glycine max) = tested on: soybean (Glycine max)
# Outline: as §1
# [4] = tested on: downy bromegrass (Bromus tectorum)
# Outline: as §1
# kochia (Kochia scoparia) = tested on: kochia (Kochia scoparia)
# Outline: as §1
# [5] = tested on: Surinam grass (Brachiaria decumbens)
# Outline: as §1
# [6] = tested on: green foxtail (Setaria viridis)
# Outline: as §1
# [7] = tested on: woolly cupgrass (Eriochloa villosa)
# Outline: as §1
# [8] = tested on: morningglory (Ipomoea coccinea)
# Outline: as §1
# [9] = tested on: johnsongrass (Sorghum halepense)
# Outline: as §1
# [10] = tested on: blackgrass (Alopecurus myosuroides)
# Outline: as §1
# [11] = tested on: velvetleaf (Abutilon theophrasti)
# Outline: as §1
# corn (Zea mays) = tested on: corn (Zea mays)
# Outline: as §1
# [12] = tested on: goosegrass (Eleusine indica)
# Outline: as §1
# [13] = tested on: large crabgrass (Digitaria sanguinalis)
# Outline: as §1
# [14] = 250 g ai/ha, Preemergence, 0 to 100 scale
# [15] = Postemergence, 31 g ai/ha, scale 0 to 100 (0 no effect, 100 complete control)
# [16] = Postemergence, 62 g ai/ha, scale 0 (no effect) to 100 (complete control), 13 to 15 days
# [17] = Postemergence, 125 g ai/ha, visual rating after 13 to 15 days, scale 0 (no effect) to 100 (complete control)
# [18] = Postemergence, 250 g ai/ha, scale 0 to 100
# [19] = Preemergence, 31 g ai/ha, scale 0 to 100 (0 no effect, 100 complete control)
# [20] = Preemergence, 62 g ai/ha, scale 0 to 100, 0 no effect, 100 complete control
# [21] = Preemergence, 125 g ai/ha, 0 to 100 scale
structure (smiles),measurement,setting,value
O=C1CCCC(O)=C1C(=O)c1cnc(-c2ccccc2)n(-c2ccc(F)cc2)c1=O [Compound 24],"Plant response rating, Lambsquarters",[1]; [14],100
same,"Plant response rating, Lambsquarters",[1]; [15],90
same,"Plant response rating, Lambsquarters",[1]; [16],90
same,"Plant response rating, Lambsquarters",[1]; [17],90
same,Lambsquarters plant response rating,[1]; [18],100
same,"Plant response rating, Lambsquarters",[1]; [19],98
same,"Plant response rating, Lambsquarters",[1]; [20],100
same,Lambsquarters plant response rating,[1]; [21],100
same,"Plant response rating, Pigweed",[2]; [14],100
same,"Plant response rating, Pigweed",[2]; [15],70
same,"Plant response rating, Pigweed",[2]; [16],80
same,"Plant response rating, Pigweed",[2]; [17],80
same,Pigweed plant response rating,[2]; [18],80
same,"Plant response rating, Pigweed",[2]; [19],98
same,"Plant response rating, Pigweed",[2]; [20],100
same,Pigweed plant response rating,[2]; [21],100
same,"Plant response rating, Oat, Wild",wild oat (Avena fatua); [14],80
same,"Plant response rating, Oat, Wild",wild oat (Avena fatua); [15],40
same,"Plant response rating, Oat, Wild",wild oat (Avena fatua); [16],50
same,"Plant response rating, Oat, Wild",wild oat (Avena fatua); [17],60
same,"Oat, Wild plant response rating",wild oat (Avena fatua); [18],80
same,"Plant response rating, Oat, Wild",wild oat (Avena fatua); [19],0
same,"Plant response rating, Oat, Wild",wild oat (Avena fatua); [20],0
same,"Oat, Wild plant response rating",wild oat (Avena fatua); [21],0
same,"Plant response rating, Nutsedge, Yellow",[3]; [14],90
same,"Plant response rating, Nutsedge, Yellow",[3]; [15],20
same,"Plant response rating, Nutsedge, Yellow",[3]; [16],30
same,"Plant response rating, Nutsedge, Yellow",[3]; [17],30
same,"Nutsedge, Yellow plant response rating",[3]; [18],70
same,"Plant response rating, Nutsedge, Yellow",[3]; [19],30
same,"Plant response rating, Nutsedge, Yellow",[3]; [20],50
same,"Nutsedge, Yellow plant response rating",[3]; [21],85
same,"Plant response rating, Soybean",soybean (Glycine max); [14],85
same,"Plant response rating, Soybean",soybean (Glycine max); [15],85
same,"Plant response rating, Soybean",soybean (Glycine max); [16],95
same,"Plant response rating, Soybean",soybean (Glycine max); [17],95
same,Soybean plant response rating,soybean (Glycine max); [18],100
same,"Plant response rating, Soybean",soybean (Glycine max); [19],45
same,"Plant response rating, Soybean",soybean (Glycine max); [20],60
same,Soybean plant response rating,soybean (Glycine max); [21],80
same,"Plant response rating, Bromegrass, Downy",[4]; [14],20
same,"Plant response rating, Bromegrass, Downy",[4]; [15],25
same,"Plant response rating, Bromegrass, Downy",[4]; [16],50
same,"Plant response rating, Bromegrass, Downy",[4]; [17],70
same,"Bromegrass, Downy plant response rating",[4]; [18],75
same,"Plant response rating, Bromegrass, Downy",[4]; [19],0
same,"Plant response rating, Bromegrass, Downy",[4]; [20],0
same,"Bromegrass, Downy plant response rating",[4]; [21],0
same,"Plant response rating, Kochia",kochia (Kochia scoparia); [14],100
same,"Plant response rating, Kochia",kochia (Kochia scoparia); [15],70
same,"Plant response rating, Kochia",kochia (Kochia scoparia); [16],70
same,"Plant response rating, Kochia",kochia (Kochia scoparia); [17],80
same,Kochia plant response rating,kochia (Kochia scoparia); [18],100
same,"Plant response rating, Kochia",kochia (Kochia scoparia); [19],100
same,"Plant response rating, Kochia",kochia (Kochia scoparia); [20],100
same,Kochia plant response rating,kochia (Kochia scoparia); [21],100
same,"Plant response rating, Surinam Grass",[5]; [14],100
same,"Plant response rating, Surinam Grass",[5]; [15],50
same,"Plant response rating, Surinam Grass",[5]; [16],55
same,"Plant response rating, Surinam Grass",[5]; [17],60
same,Surinam Grass plant response rating,[5]; [18],80
same,"Plant response rating, Surinam Grass",[5]; [19],65
same,"Plant response rating, Surinam Grass",[5]; [20],75
same,Surinam Grass plant response rating,[5]; [21],95
same,"Plant response rating, Foxtail, Green",[6]; [14],100
same,"Plant response rating, Foxtail, Green",[6]; [15],40
same,"Plant response rating, Foxtail, Green",[6]; [16],40
same,"Plant response rating, Foxtail, Green",[6]; [17],90
same,"Foxtail, Green plant response rating",[6]; [18],95
same,"Plant response rating, Foxtail, Green",[6]; [19],0
same,"Plant response rating, Foxtail, Green",[6]; [20],40
same,"Foxtail, Green plant response rating",[6]; [21],100
same,"Plant response rating, Cupgrass, Woolly",[7]; [14],90
same,"Plant response rating, Cupgrass, Woolly",[7]; [15],80
same,"Plant response rating, Cupgrass, Woolly",[7]; [16],80
same,"Plant response rating, Cupgrass, Woolly",[7]; [17],95
same,"Cupgrass, Woolly plant response rating",[7]; [18],95
same,"Plant response rating, Cupgrass, Woolly",[7]; [19],5
same,"Plant response rating, Cupgrass, Woolly",[7]; [20],70
same,"Cupgrass, Woolly plant response rating",[7]; [21],85
same,"Plant response rating, Morningglory",[8]; [14],100
same,"Plant response rating, Morningglory",[8]; [15],50
same,"Plant response rating, Morningglory",[8]; [16],60
same,"Plant response rating, Morningglory",[8]; [17],60
same,Morningglory plant response rating,[8]; [18],90
same,"Plant response rating, Morningglory",[8]; [19],100
same,"Plant response rating, Morningglory",[8]; [20],100
same,Morningglory plant response rating,[8]; [21],100
same,"Plant response rating, Johnsongrass",[9]; [14],90
same,"Plant response rating, Johnsongrass",[9]; [15],60
same,"Plant response rating, Johnsongrass",[9]; [16],60
same,"Plant response rating, Johnsongrass",[9]; [17],70
same,Johnsongrass plant response rating,[9]; [18],80
same,"Plant response rating, Johnsongrass",[9]; [19],20
same,"Plant response rating, Johnsongrass",[9]; [20],85
same,Johnsongrass plant response rating,[9]; [21],90
same,"Plant response rating, Blackgrass",[10]; [14],10
same,"Plant response rating, Blackgrass",[10]; [15],5
same,"Plant response rating, Blackgrass",[10]; [16],10
same,"Plant response rating, Blackgrass",[10]; [17],40
same,Blackgrass plant response rating,[10]; [18],50
same,"Plant response rating, Blackgrass",[10]; [19],0
same,"Plant response rating, Blackgrass",[10]; [20],0
same,Blackgrass plant response rating,[10]; [21],0
same,"Plant response rating, Velvetleaf",[11]; [14],100
same,"Plant response rating, Velvetleaf",[11]; [15],75
same,"Plant response rating, Velvetleaf",[11]; [16],90
same,"Plant response rating, Velvetleaf",[11]; [17],98
same,Velvetleaf plant response rating,[11]; [18],98
same,"Plant response rating, Velvetleaf",[11]; [19],98
same,"Plant response rating, Velvetleaf",[11]; [20],100
same,Velvetleaf plant response rating,[11]; [21],100
same,"Plant response rating, Corn",corn (Zea mays); [14],5
same,"Plant response rating, Corn",corn (Zea mays); [15],30
same,"Plant response rating, Corn",corn (Zea mays); [16],50
same,"Plant response rating, Corn",corn (Zea mays); [17],85
same,Corn plant response rating,corn (Zea mays); [18],85
same,"Plant response rating, Corn",corn (Zea mays); [19],0
same,"Plant response rating, Corn",corn (Zea mays); [20],0
same,Corn plant response rating,corn (Zea mays); [21],0
same,"Plant response rating, Goosegrass",[12]; [14],100
same,"Plant response rating, Goosegrass",[12]; [15],85
same,"Plant response rating, Goosegrass",[12]; [16],85
same,"Plant response rating, Goosegrass",[12]; [17],85
same,Goosegrass plant response rating,[12]; [18],98
same,"Plant response rating, Goosegrass",[12]; [19],85
same,Goosegrass plant response rating,[12]; [21],100
same,"Plant response rating, Crabgrass, Large",[13]; [14],100
same,"Plant response rating, Crabgrass, Large",[13]; [15],70
same,"Plant response rating, Crabgrass, Large",[13]; [16],75
same,"Plant response rating, Crabgrass, Large",[13]; [17],95
same,"Crabgrass, Large plant response rating",[13]; [18],100
same,"Plant response rating, Crabgrass, Large",[13]; [19],90
same,"Plant response rating, Crabgrass, Large",[13]; [20],98
same,"Crabgrass, Large plant response rating",[13]; [21],100
